Values quoted from earlier work in patent publication US9609876B2, “Antimicrobial compositions” (priority 2012, dated 2017).

Key:
[1] = in vivo

| pH range in which it is stable and maintains its antimicrobial activity | Compound | LD50 [1] [mg/kg] |
| --- | --- | --- |
| 3-7 | CCCCCCCCCCCC(=O)N[C@@H](CCCNC(=N)N)C(=O)OCC.Cl [LAE, N^α-lauroyl-L-arginine ethyl ester monohydrochloride] |  |
|  | CC(=O)CCC(=O)O [Levulinic acid] | 1850 |
